The NIST ThermoML archive (doi:10.1016/j.jct.2011.11.014)

Assay: mn = molality of the nth substance listed, in mol/kg
Conditions: 101.3 kPa, Liquid; for speed of sound: Sing-around technique in a fixed-path interferometer; for mass density: Vibrating tube method

CCOC(=O)CC(=O)[O-].[K+] [potassium 3-ethoxy-3-oxopropanoate] + O
Conditions | mass density [kg/m3] | speed of sound [m/s]
288.15 K, m1 = 0.0116 | 999.92 | 1468.2
288.15 K, m1 = 0.0175 | 1000.34 | 1469
288.15 K, m1 = 0.0352 | 1001.57 | 1471.2
288.15 K, m1 = 0.0453 | 1002.29 | 1472.6
288.15 K, m1 = 0.0579 | 1003.14 | 1474.2
288.15 K, m1 = 0.1204 | 1007.45 | 1482.2
288.15 K, m1 = 0.18 | 1011.47 | 1489.7
288.15 K, m1 = 0.2369 | 1015.22 | 1496.6
288.15 K, m1 = 0.3076 | 1019.83 | 1505.1
293.15 K, m1 = 0.0116 | 999.013 | 1484.1
293.15 K, m1 = 0.0175 | 999.423 | 1484.9
293.15 K, m1 = 0.0352 | 1000.64 | 1487
293.15 K, m1 = 0.0453 | 1001.35 | 1488.3
293.15 K, m1 = 0.0579 | 1002.19 | 1489.8
293.15 K, m1 = 0.1204 | 1006.44 | 1497.2
293.15 K, m1 = 0.18 | 1010.41 | 1504.2
293.15 K, m1 = 0.2369 | 1014.11 | 1510.6
293.15 K, m1 = 0.3076 | 1018.65 | 1518.7
298.15 K, m1 = 0.0116 | 997.84 | 1498.2
298.15 K, m1 = 0.0175 | 998.247 | 1499
298.15 K, m1 = 0.0352 | 999.442 | 1500.9
298.15 K, m1 = 0.0453 | 1000.15 | 1502.1
298.15 K, m1 = 0.0579 | 1000.98 | 1503.5
298.15 K, m1 = 0.1204 | 1005.18 | 1510.4
298.15 K, m1 = 0.18 | 1009.1 | 1516.9
298.15 K, m1 = 0.2369 | 1012.76 | 1523
298.15 K, m1 = 0.3076 | 1017.25 | 1530.5
303.15 K, m1 = 0.0116 | 996.433 | 1510.5
303.15 K, m1 = 0.0175 | 996.835 | 1511.2
303.15 K, m1 = 0.0352 | 998.02 | 1513
303.15 K, m1 = 0.0453 | 998.716 | 1514.1
303.15 K, m1 = 0.0579 | 999.538 | 1515.4
303.15 K, m1 = 0.1204 | 1003.7 | 1521.9
303.15 K, m1 = 0.18 | 1007.58 | 1528
303.15 K, m1 = 0.2369 | 1011.19 | 1533.6
303.15 K, m1 = 0.3076 | 1015.64 | 1540.6
308.15 K, m1 = 0.0116 | 994.811 | 1521
308.15 K, m1 = 0.0175 | 995.206 | 1521.7
308.15 K, m1 = 0.0352 | 996.379 | 1523.4
308.15 K, m1 = 0.0453 | 997.071 | 1524.4
308.15 K, m1 = 0.0579 | 997.885 | 1525.7
308.15 K, m1 = 0.1204 | 1002 | 1531.8
308.15 K, m1 = 0.18 | 1005.85 | 1537.4
308.15 K, m1 = 0.2369 | 1009.43 | 1542.7
308.15 K, m1 = 0.3076 | 1013.83 | 1549.1
313.15 K, m1 = 0.0116 | 992.986 | 1530
313.15 K, m1 = 0.0175 | 993.379 | 1530.7
313.15 K, m1 = 0.0352 | 994.542 | 1532.2
313.15 K, m1 = 0.0453 | 995.228 | 1533.2
313.15 K, m1 = 0.0579 | 996.034 | 1534.4
313.15 K, m1 = 0.1204 | 1000.12 | 1540.1
313.15 K, m1 = 0.18 | 1003.93 | 1545.4
313.15 K, m1 = 0.2369 | 1007.47 | 1550.3
313.15 K, m1 = 0.3076 | 1011.84 | 1556.3

COC(=O)CC(=O)[O-].[K+] [potassium 3-methoxy-3-oxopropanoate] + O
Conditions | mass density [kg/m3] | speed of sound [m/s]
288.15 K, m1 = 0.0128 | 1000.03 | 1468.1
288.15 K, m1 = 0.0148 | 1000.18 | 1468.3
288.15 K, m1 = 0.0189 | 1000.47 | 1468.8
288.15 K, m1 = 0.0253 | 1000.94 | 1469.6
288.15 K, m1 = 0.0316 | 1001.39 | 1470.3
288.15 K, m1 = 0.0444 | 1002.3 | 1471.8
288.15 K, m1 = 0.0512 | 1002.81 | 1472.4
288.15 K, m1 = 0.0637 | 1003.7 | 1474
288.15 K, m1 = 0.0836 | 1005.11 | 1476
288.15 K, m1 = 0.1286 | 1008.32 | 1481.1
288.15 K, m1 = 0.1868 | 1012.39 | 1487.4
288.15 K, m1 = 0.2644 | 1017.68 | 1495.4
288.15 K, m1 = 0.3285 | 1022.02 | 1502.2
288.15 K, m1 = 0.3591 | 1024 | 1505
293.15 K, m1 = 0.0128 | 999.122 | 1484
293.15 K, m1 = 0.0148 | 999.272 | 1484.2
293.15 K, m1 = 0.0189 | 999.553 | 1484.7
293.15 K, m1 = 0.0253 | 1000.02 | 1485.4
293.15 K, m1 = 0.0316 | 1000.47 | 1486.1
293.15 K, m1 = 0.0444 | 1001.37 | 1487.4
293.15 K, m1 = 0.0512 | 1001.87 | 1488.2
293.15 K, m1 = 0.0637 | 1002.74 | 1489.5
293.15 K, m1 = 0.0836 | 1004.14 | 1491.5
293.15 K, m1 = 0.1286 | 1007.31 | 1496.2
293.15 K, m1 = 0.1868 | 1011.34 | 1502
293.15 K, m1 = 0.2644 | 1016.57 | 1509.6
293.15 K, m1 = 0.3285 | 1020.84 | 1516.1
293.15 K, m1 = 0.3591 | 1022.81 | 1518.6
298.15 K, m1 = 0.0128 | 997.951 | 1498.1
298.15 K, m1 = 0.0148 | 998.099 | 1498.4
298.15 K, m1 = 0.0189 | 998.377 | 1498.8
298.15 K, m1 = 0.0253 | 998.84 | 1499.4
298.15 K, m1 = 0.0316 | 999.281 | 1500.1
298.15 K, m1 = 0.0444 | 1000.17 | 1501.3
298.15 K, m1 = 0.0512 | 1000.67 | 1502
298.15 K, m1 = 0.0637 | 1001.53 | 1503.3
298.15 K, m1 = 0.0836 | 1002.91 | 1505.1
298.15 K, m1 = 0.1286 | 1006.05 | 1509.5
298.15 K, m1 = 0.1868 | 1010.04 | 1514.9
298.15 K, m1 = 0.2644 | 1015.21 | 1522.1
298.15 K, m1 = 0.3285 | 1019.45 | 1528
298.15 K, m1 = 0.3591 | 1021.39 | 1530.5
303.15 K, m1 = 0.0128 | 996.543 | 1510.4
303.15 K, m1 = 0.0148 | 996.691 | 1510.6
303.15 K, m1 = 0.0189 | 996.967 | 1511
303.15 K, m1 = 0.0253 | 997.423 | 1511.6
303.15 K, m1 = 0.0316 | 997.862 | 1512.2
303.15 K, m1 = 0.0444 | 998.743 | 1513.3
303.15 K, m1 = 0.0512 | 999.236 | 1514
303.15 K, m1 = 0.0637 | 1000.1 | 1515.2
303.15 K, m1 = 0.0836 | 1001.46 | 1517
303.15 K, m1 = 0.1286 | 1004.57 | 1521.1
303.15 K, m1 = 0.1868 | 1008.52 | 1526.2
303.15 K, m1 = 0.2644 | 1013.64 | 1532.9
303.15 K, m1 = 0.3285 | 1017.84 | 1538.5
303.15 K, m1 = 0.3591 | 1019.76 | 1540.8
308.15 K, m1 = 0.0128 | 994.92 | 1520.9
308.15 K, m1 = 0.0148 | 995.066 | 1521.2
308.15 K, m1 = 0.0189 | 995.341 | 1521.5
308.15 K, m1 = 0.0253 | 995.793 | 1522.1
308.15 K, m1 = 0.0316 | 996.226 | 1522.7
308.15 K, m1 = 0.0444 | 997.101 | 1523.7
308.15 K, m1 = 0.0512 | 997.589 | 1524.4
308.15 K, m1 = 0.0637 | 998.449 | 1525.5
308.15 K, m1 = 0.0836 | 999.794 | 1527.1
308.15 K, m1 = 0.1286 | 1002.88 | 1531
308.15 K, m1 = 0.1868 | 1006.79 | 1535.8
308.15 K, m1 = 0.2644 | 1011.88 | 1542.1
308.15 K, m1 = 0.3285 | 1016.04 | 1547.4
308.15 K, m1 = 0.3591 | 1017.95 | 1549.5
313.15 K, m1 = 0.0128 | 993.096 | 1530
313.15 K, m1 = 0.0148 | 993.243 | 1530.2
313.15 K, m1 = 0.0189 | 993.515 | 1530.5
313.15 K, m1 = 0.0253 | 993.962 | 1531.1
313.15 K, m1 = 0.0316 | 994.391 | 1531.6
313.15 K, m1 = 0.0444 | 995.26 | 1532.6
313.15 K, m1 = 0.0512 | 995.745 | 1533.2
313.15 K, m1 = 0.0637 | 996.599 | 1534.3
313.15 K, m1 = 0.0836 | 997.933 | 1535.8
313.15 K, m1 = 0.1286 | 1001 | 1539.5
313.15 K, m1 = 0.1868 | 1004.88 | 1543.9
313.15 K, m1 = 0.2644 | 1009.93 | 1549.9
313.15 K, m1 = 0.3285 | 1014.06 | 1554.9
313.15 K, m1 = 0.3591 | 1015.96 | 1556.8
